According to US20210395248A1, “INHIBITORS OF HUMAN IMMUNODEFICIENCY VIRUS REPLICATION” (ViiV HEALTHCARE UK (NO.5) LIMITED, priority 2018, published 2021):

What was measured:
[1] = system: recombinant NL4-3 virus (Renilla luciferase reporter) in MT-2 cells; assay: HIV cell culture assay (antiviral activity, luciferase readout in infected MT-2 cells); assay type: cell-based; details: NL43
Description: HIV cell culture assay—MT-2 cells, 293T cells and the proviral DNA clone of NL4-3 virus were obtained from the NIH AIDS Research and Reference Reagent Program. MT-2 cells were propagated in RPMI 1640 media supplemented with 10% heat inactivated fetal bovine serum (FBS), […]. The 293T cells were propagated in DMEM media supplemented with 10% heat inactivated FBS, […]. A recombinant NL4-3 proviral clone, in which a section of the nef gene was replaced with the Renilla luciferase gene, was used to make the reference virus used in these studies. The recombinant virus was prepared through transfection of the recombinant NL4-3 proviral clone into 293T cells using Transit-293 Transfection Reagent from Mirus Bio LLC (Madison, Wis.). Supernatent was harvested after 2-3 days and the amount of virus present was titered in MT-2 cells using luciferase enzyme activity as a marker by measuring luciferase enzyme activity. Luciferase was quantitated using the EnduRen Live Cell Substrate from Promega (Madison, Wis.). Antiviral activities of compounds toward the recombinant virus were quantified by measuring luciferase activity in MT-2 cells infected for 4-5 days with the recombinant virus in the presence of serial dilutions of the compound.
The 50% effective concentration (EC50) was calculated by using the exponential form of the median effect equation where (Fa)=1/[1+(EC50/drug conc.)m] (Johnson V A, Byington RT. Infectivity Assay. In Techniques in HIV Research, ed. Aldovini A, Walker B D. 71-76. New York: Stockton Press. 1990). The 50% inhibitory concentration (EC50) was calculated by using the exponential form of the median effect equation where percent inhibition=1/[1+(EC50/drug concentration)m], where m is a parameter that reflects the slope of the concentration-response curve.

[2] = Compound cytotoxicity, XTT-based colorimetric assay; assay type: cell-based; details: human; uninfected MT2 cells, day 4, XTT; read-out: CC50
Description: Compound cytotoxicity and the corresponding CC50 values were determined using the same protocol as described in the antiviral assay except that uninfected cells were used. Cytotoxicity was assessed on day 4 in uninfected MT2 cells by using a XTT (2,3-bis [2-Methoxy-4-nitro-5-sulfophenyl]-2H-tetrazolium-5-carboxyanilide inner salt)-based colorimetric assay (Sigma-Aldrich, St Louis, Mo.).

| SMILES | EC50 [1] [nM] | CC50 at 4 days [2] [nM] |
| --- | --- | --- |
| Cn1nc(NS(C)(=O)=O)c2c(Cl)ccc(-n3c([C@H](Cc4cc(F)cc(F)c4)NC(=O)Cn4nc(C(F)F)c5c4C(F)(F)[C@@H]4C[C@H]54)nc4nc(N5CCO[C@H](C(F)(F)F)C5)ccc4c3=O)c21 (atropisomer, axis not shown; (P)) [Example 11, N—((S)-1-((3P)-3-(4-chloro-1-methyl-3-(methylsulfonamido)-1H-indazol-7-yl)-4-oxo-7-((S)-2-(trifluoromethyl)morpholino)-3,4-dihydropyrido[2,3-d]pyrimidin-2-yl)-2-(3,5-difluorophenyl)ethyl)-2-((3bS,4aR)-3-(difluoromethyl)-5,5-difluoro-3b,4,4a,5-tetrahydro-1H-cyclopropa[3,4]cyclopenta[1,2-c]pyrazol-1-yl)acetamide] | 0.019 | > 100 |
| Cn1nc(NS(C)(=O)=O)c2c(Cl)ccc(-n3c([C@H](Cc4cc(F)cc(F)c4)NC(=O)Cn4nc(C(F)F)c5c4C(F)(F)[C@@H]4C[C@H]54)nc4nc(N5CCO[C@@H](C(F)(F)F)C5)ccc4c3=O)c21 (atropisomer, axis not shown; (P)) [Example 12, N—((S)-1-((3P)-3-(4-chloro-1-methyl-3-(methylsulfonamido)-1H-indazol-7-yl)-4-oxo-7-((R)-2-(trifluoromethyl)morpholino)-3,4-dihydropyrido[2,3-d]pyrimidin-2-yl)-2-(3,5-difluorophenyl)ethyl)-2-((3bS,4aR)-3-(difluoromethyl)-5,5-difluoro-3b,4,4a,5-tetrahydro-1H-cyclopropa[3,4]cyclopenta[1,2-c]pyrazol-1-yl)acetamide] | 0.02 | > 100 |
| Cn1nc(NS(C)(=O)=O)c2c(Cl)ccc(-n3c([C@H](Cc4cc(F)cc(F)c4)NC(=O)Cn4nc(C(F)F)c5c4C(F)(F)[C@@H]4C[C@H]54)nc4nc(N(CCC(F)(F)F)C5CCC5)ccc4c3=O)c21 (atropisomer, axis not shown; (P)) [Example 13, N—((S)-1-((3P)-3-(4-chloro-1-methyl-3-(methylsulfonamido)-1H-indazol-7-yl)-7-(cyclobutyl(3,3,3-trifluoropropyl)amino)-4-oxo-3,4-dihydropyrido[2,3-d]pyrimidin-2-yl)-2-(3,5-difluorophenyl)ethyl)-2-((3bS,4aR)-3-(difluoromethyl)-5,5-difluoro-3b,4,4a,5-tetrahydro-1H-cyclopropa[3,4]cyclopenta[1,2-c]pyrazol-1-yl)acetamide] | 0.068 | > 100 |
| Cn1nc(NS(C)(=O)=O)c2c(Cl)ccc(-n3c([C@H](Cc4cc(F)cc(F)c4)NC(=O)Cn4nc(C(F)F)c5c4C(F)(F)[C@@H]4C[C@H]54)nc4nc(N(CCC(F)(F)F)CC5CC5)ccc4c3=O)c21 (atropisomer, axis not shown; (P)) [Example 14, N—((S)-1-((3P)-3-(4-chloro-1-methyl-3-(methylsulfonamido)-1H-indazol-7-yl)-7-((cyclopropylmethyl)(3,3,3-trifluoropropyl)amino)-4-oxo-3,4-dihydropyrido[2,3-d]pyrimidin-2-yl)-2-(3,5-difluorophenyl)ethyl)-2-((3bS,4aR)-3-(difluoromethyl)-5,5-difluoro-3b,4,4a,5-tetrahydro-1H-cyclopropa[3,4]cyclopenta[1,2-c]pyrazol-1-yl)acetamide] | 0.11 | > 100 |
| C[C@@H]1CN(c2ccc3c(=O)n(-c4ccc(Cl)c5c(NS(C)(=O)=O)nn(C)c45)c([C@H](Cc4cc(F)cc(F)c4)NC(=O)Cc4ccn(C5CC5)n4)nc3n2)C[C@H](C)O1 (atropisomer, axis not shown; (P)) [Example 15, N—((S)-1-((3P)-3-(4-chloro-1-methyl-3-(methylsulfonamido)-1H-indazol-7-yl)-7-((2S,6R)-2,6-dimethylmorpholino)-4-oxo-3,4-dihydropyrido[2,3-d]pyrimidin-2-yl)-2-(3,5-difluorophenyl)ethyl)-2-(1-cyclopropyl-1H-pyrazol-3-yl)acetamide] | 0.11 | > 100 |
| C[C@@H]1CN(c2ccc3c(=O)n(-c4ccc(Cl)c5c(NS(C)(=O)=O)nn(C)c45)c([C@H](Cc4cc(F)cc(F)c4)NC(=O)Cn4ccc(C5CC5)n4)nc3n2)C[C@H](C)O1 (atropisomer, axis not shown; (P)) [Example 16, N—((S)-1-((3P)-3-(4-chloro-1-methyl-3-(methylsulfonamido)-1H-indazol-7-yl)-7-((2S,6R)-2,6-dimethylmorpholino)-4-oxo-3,4-dihydropyrido[2,3-d]pyrimidin-2-yl)-2-(3,5-difluorophenyl)ethyl)-2-(3-cyclopropyl-1H-pyrazol-1-yl)acetamide] | 0.2 | > 500 |
| C[C@@H]1CN(c2ccc3c(=O)n(-c4ccc(Cl)c5c(NS(C)(=O)=O)nn(CC(F)(F)F)c45)c([C@H](Cc4cc(F)cc(F)c4)NC(=O)Cn4ccc(C5CC5)n4)nc3n2)C[C@H](C)O1 (atropisomer, axis not shown; (P)) [Example 17, N—((S)-1-((3P)-3-(4-chloro-3-(methylsulfonamido)-1-(2,2,2-trifluoroethyl)-1H-indazol-7-yl)-7-((2S,6R)-2,6-dimethylmorpholino)-4-oxo-3,4-dihydropyrido[2,3-d]pyrimidin-2-yl)-2-(3,5-difluorophenyl)ethyl)-2-(3-cyclopropyl-1H-pyrazol-1-yl)acetamide] | 0.24 | > 500 |
| CC(C)n1ccc(CC(=O)N[C@@H](Cc2cc(F)cc(F)c2)c2nc3nc(N4C[C@@H](C)O[C@@H](C)C4)ccc3c(=O)n2-c2ccc(Cl)c3c(NS(C)(=O)=O)nn(C)c23)n1 (atropisomer, axis not shown; (P)) [Example 18, N—((S)-1-((3P)-3-(4-chloro-1-methyl-3-(methylsulfonamido)-1H-indazol-7-yl)-7-((2S,6R)-2,6-dimethylmorpholino)-4-oxo-3,4-dihydropyrido[2,3-d]pyrimidin-2-yl)-2-(3,5-difluorophenyl)ethyl)-2-(1-isopropyl-1H-pyrazol-3-yl)acetamide] | 0.16 | > 100 |
| Cn1nc(NS(C)(=O)=O)c2c(Cl)ccc(-n3c([C@H](Cc4cc(F)cc(F)c4)NC(=O)Cn4nc(C(F)F)c5c4C(F)(F)[C@@H]4C[C@H]54)nc4nc(N5CCCOCC5)ccc4c3=O)c21 (atropisomer, axis not shown; (P)) [Example 22, N—((S)-1-((3P)-3-(4-chloro-1-methyl-3-(methylsulfonamido)-1H-indazol-7-yl)-7-(1,4-oxazepan-4-yl)-4-oxo-3,4-dihydropyrido[2,3-d]pyrimidin-2-yl)-2-(3,5-difluorophenyl)ethyl)-2-((3bS,4aR)-3-(difluoromethyl)-5,5-difluoro-3b,4,4a,5-tetrahydro-1H-cyclopropa[3,4]cyclopenta[1,2-c]pyrazol-1-yl)acetamide] | 0.052 | > 100 |
| Cn1nc(NS(C)(=O)=O)c2c(Cl)ccc(-n3c([C@H](Cc4cc(F)cc(F)c4)NC(=O)Cn4nc(C(F)F)c5c4C(F)(F)[C@@H]4C[C@H]54)nc4nc(N5CCOCC5)ccc4c3=O)c21 (atropisomer, axis not shown; (P)) [Example 23, N—((S)-1-((3P)-3-(4-chloro-1-methyl-3-(methylsulfonamido)-1H-indazol-7-yl)-7-morpholino-4-oxo-3,4-dihydropyrido[2,3-d]pyrimidin-2-yl)-2-(3,5-difluorophenyl)ethyl)-2-((3bS,4aR)-3-(difluoromethyl)-5,5-difluoro-3b,4,4a,5-tetrahydro-1H-cyclopropa[3,4]cyclopenta[1,2-c]pyrazol-1-yl)acetamide] | 0.058 | > 100 |
| Cn1nc(NS(C)(=O)=O)c2c(Cl)ccc(-n3c([C@H](Cc4cc(F)cc(F)c4)NC(=O)Cn4nc(C(F)F)c5c4C(F)(F)[C@@H]4C[C@H]54)nc4nc(NCCC(C)(C)F)ccc4c3=O)c21 (atropisomer, axis not shown; (P)) [Example 24, N—((S)-1-((3P)-3-(4-chloro-1-methyl-3-(methylsulfonamido)-1H-indazol-7-yl)-7-((3-fluoro-3-methylbutyl)amino)-4-oxo-3,4-dihydropyrido[2,3-d]pyrimidin-2-yl)-2-(3,5-difluorophenyl)ethyl)-2-((3bS,4aR)-3-(difluoromethyl)-5,5-difluoro-3b,4,4a,5-tetrahydro-1H-cyclopropa[3,4]cyclopenta[1,2-c]pyrazol-1-yl)acetamide] | 0.04 | > 100 |
